In brackets after ≈: the same amount, converted by molar mass. Where a SMILES comes first, the peptide text is derived from it. Bridges are numbered along the chain shown (N, C = ends). Roman numbers before positions name the chains, in order. The star is where a group is joined. Palmitoyl = CCCCCCCCCCCCCCCC(=O)*; Lauroyl = CCCCCCCCCCCC(=O)*
Columns and labels:
PM biofilm = details: cited from earlier work
Text: (§1) They were ineffective against PM, which was difficult to eradicate with peptides (and antibiotics) in previously performed studies. PM can cause infections of the urinary tract, skin, subcutaneous tissue, and wounds. PM is known as a biofilm former, and an evident increase of PM resistance to broad-spectrum fluoroquinolones and cephalosporins has been observed. In the previous study, mature PM b ...

[1] = RP-HPLC retention to evaluate the hydrophobicity of lipopeptides; format: physicochemical; details: chromatographic, Luna C18(2) 3.0 × 100 mm, 5.0 µm, linear 20–80% acetonitrile in water over 10 min, 0.1% formic acid, 0.5 mL/min, UV 214 nm, used to evaluate hydrophobicity
Experimental: The crude peptide was lyophilized and subsequently purified by RP-HPLC. The purifications were carried out on a Phenomenex Gemini-NX C18 column (21.20 × 100 mm, 5.0 µm particle size, and 110 Å pore size). Acetonitrile and water, both containing 0.1% of TFA, were used as the mobile phase. UV detection at 214 nm was used. The crude peptides were eluted with a linear 20–80% acetonitrile gradient in deionized water over 60 min at a flow rate of 10.0 mL/min. The purity and identity of the peptides were confirmed with LC-MS analysis. A Waters Alliance e2695 RP-HPLC system (Waters, Milford, MA, USA) with Waters 2998 PDA (Waters, Milford, MA, USA) and Acquity QDA detectors (Empower®3 software, Database Version 7.21.00.00) was used. All analyses were carried out on a Phenomenex, Luna C18(2) column (3.0 × 100 mm, 5.0 µm particle size, 100 Å pore size). The samples were analyzed with a linear 20–80% acetonitrile gradient in deionized water over 10 min at a flow rate of 0.5 mL/min with UV detection at 214 nm. Both eluents contained 0.1% (v/v) of formic acid. The pure fractions (>95%, by HPLC analysis) were collected and lyophilized. The retention time and percentage of ACN (%) at which each peptide was eluted are included in Table 1 to evaluate the hydrophobicity of lipopeptides. The identity of all compounds was confirmed using mass spectrometry (Waters Alliance e2695 system with Acquity QDA detector, Waters, Milford, MA, USA) with electrospray ionization in positive ion mode (ESI-MS). In this mode, a proton is attached to basic moieties (amine groups, guanidine groups). The theoretical mass of the peptide was calculated and then expected ions (m/z—mass to charge ratio) were compared to measured m/z. The results are presented in Table 1, and mass spectra are presented in the Supplementary Materials.

[2] = tested on: Staphylococcus aureus ATCC 25923; format: cell-based; details: ATCC 25923, 24 h
Experimental: (§2) The biofilms of bacteria associated with the biofilm-related infections were cultured on 96-well flat bottom PS and on CL placed in 24-well plates. The bacteria at initial inoculums of 5 × 10^8 CFU/mL in MHB II were added to the plates and incubated at 37 °C under aerobic conditions. After 24 h of incubation, all cultures were rinsed three times with PBS and fresh medium was added. Subsequently, the obtained biofilm cultures were exposed to solutions of antimicrobials applied at graded concentrations ranging from 1 to 512 μg/mL for 24 h at 37 °C. The anti-biofilm activity of antimicrobials was visualized by resazurin (final concentration per sample = 0.005%) in the same way as in the MBFIC assay. All experiments were performed in triplicate and included growth controls (positive control: bacterial suspension without antimicrobials) and sterility controls (negative controls: sterile MBH II medium).

[3] = tested on: Pseudomonas aeruginosa ATCC 9027; format: cell-based; details: ATCC 9027, 24 h
Experimental: as §2

[4] = tested on: Escherichia coli ATCC 25922; format: cell-based; details: ATCC 25922, 24 h
Experimental: as §2

[5] = tested on: Enterococcus faecalis ATCC 29212; format: cell-based; details: ATCC 29212, 24 h
Experimental: as §2

[6] = tested on: Proteus mirabilis PCM 543; format: cell-based; details: PCM 543, 24 h
Experimental: as §2

[7] = tested on: Staphylococcus epidermidis ATCC 14990; format: cell-based; details: ATCC 14990, 24 h
Experimental: as §2

[8] = tested on: Staphylococcus aureus ATCC 25923; test: MBFIC assay (biofilm formation inhibition, resazurin); format: cell-based; details: ca. 5 × 10^8 CFU/mL in MHB II, 37 °C, 18 h, resazurin, visual, triplicate; for MBFIC S. aureus, CL: contact lenses (CL, Etafilcon A hydrogel) in 24-well plates; for MBFIC S. aureus, PS: polystyrene plates (PS), 96-well
Experimental: (§3) To determine the inhibitory effect of antimicrobials on the formation of biofilm on hydrophobic surfaces, the bacterial suspensions of strains (initial inoculum of ca. 5 × 10^8 CFU/mL in MHB II medium supplemented with antimicrobials) were cultured on 96-well PS at 37 °C for 18 h under aerobic conditions. After incubation, the suspensions were aspirated, and the wells were rinsed three times with sterile phosphate buffer PBS (AppliChem, Darmstadt, Germany) in order to remove the planktonic cells. Resazurin (final concentration per sample = 0.005%) was applied as a cell viability reagent for reading the results. In contact with the living cells, the dye is metabolized by bacterial dehydrogenases, resulting in a reduction of blue resazurin to pink resorufin. All assays were performed in triplicate and included the growth controls (positive controls: bacterial suspensions without antimicrobials) and the sterility controls (negative controls: a sterile MBH medium). After 1h of incubation, a visual evaluation of results was made. […] In a preliminary study, it was established that the application of lipopeptides at a concentration found active from visual evaluation caused the reduction of bacterial metabolism to approximately 10% (or less) of the positive control once the results were evaluated with a spectrophotometer. After 1 h of incubation with the dye, absorbance was measured at 570 and 600 nm using a microplate reader (Thermo Fisher Scientific, Waltham, MA, USA). The metabolic activity of bacteria in the samples was measured according to the formula presented in the previous paper.
(§4) The MBFIC assay with CL was applied in order to access the influence of lipopeptides on the biofilm formation on hydrogel surfaces. The entire sterile CL (1-Day Acuvue Moist, containing Etafilcon A., purchased from Johnson & Johnson (Vision Care, Jacksonsville, FL, USA), were placed in 24-well PS (Orange Scientific, Braine-l’ Alleud, Belgium) and the MBFICs were determined according to the above protocol.

[9] = tested on: Pseudomonas aeruginosa ATCC 9027; test: as above; format: cell-based; details: ca. 5 × 10^8 CFU/mL in MHB II, 37 °C, 18 h, visual, triplicate; for MBFIC P. aeruginosa, CL: contact lenses (CL, Etafilcon A hydrogel) in 24-well plates; for MBFIC P. aeruginosa, PS: polystyrene plates (PS), 96-well
Experimental: as §3, §4

[10] = tested on: Escherichia coli ATCC 25922; test: as above; format: cell-based; details: ca. 5 × 10^8 CFU/mL in MHB II, 37 °C, 18 h, visual, triplicate; for MBFIC E. coli, CL: contact lenses (CL, Etafilcon A hydrogel) in 24-well plates; for MBFIC E. coli, PS: polystyrene plates (PS), 96-well
Experimental: as §3, §4

[11] = tested on: Enterococcus faecalis ATCC 29212; test: as above; format: cell-based; details: ca. 5 × 10^8 CFU/mL in MHB II, 37 °C, 18 h, visual, triplicate; for MBFIC E. faecalis, CL: contact lenses (CL, Etafilcon A hydrogel) in 24-well plates; for MBFIC E. faecalis, PS: polystyrene plates (PS), 96-well
Experimental: as §3, §4

[12] = tested on: Proteus mirabilis PCM 543; test: as above; format: cell-based; details: ca. 5 × 10^8 CFU/mL in MHB II, 37 °C, 18 h, visual, triplicate; for MBFIC P. mirabilis, CL: contact lenses (CL, Etafilcon A hydrogel) in 24-well plates; for MBFIC P. mirabilis, PS: polystyrene plates (PS), 96-well
Experimental: as §3, §4

[13] = tested on: Staphylococcus epidermidis ATCC 14990; test: as above; format: cell-based; details: ca. 5 × 10^8 CFU/mL in MHB II, 37 °C, 18 h, resazurin, visual, triplicate; for MBFIC S. epidermidis, CL: contact lenses (CL, Etafilcon A hydrogel) in 24-well plates; for MBFIC S. epidermidis, PS: polystyrene plates (PS), 96-well
Experimental: as §3, §4

[14] = tested on: Staphylococcus aureus ATCC 25923; format: cell-based; details: ATCC 25923, 18 h
Experimental: (§5) The reference strains of gram-positive and gram-negative bacteria (Table 2) were obtained from the Polish Collection of Microorganisms (Polish Academy of Science, Wroclaw, Poland). The microorganisms were cultured in Muller Hinton Broth II (MHB II, Biocorp, Warsaw, Poland), overnight, at 37 °C. The MICs of synthetic lipopeptides and conventional antimicrobials were determined using the broth microdilution method according to the Clinical and Laboratory Standard Institute (CLSI) guidelines on reference strains. […] The PS were incubated under aerobic conditions at 37 °C for 18 h. The MIC (μg/mL) was assumed as the lowest concentration of the compound that inhibited the growth of the microorganisms. All experiments were performed in triplicate and included the growth and sterility controls.

[15] = tested on: Pseudomonas aeruginosa ATCC 9027; format: cell-based; details: ATCC 9027, 18 h
Experimental: as §5

[16] = tested on: Escherichia coli ATCC 25922; format: cell-based; details: ATCC 25922, 18 h
Experimental: as §5

[17] = tested on: Enterococcus faecalis ATCC 29212; format: cell-based; details: ATCC 29212, 18 h
Experimental: as §5

[18] = tested on: Staphylococcus epidermidis ATCC 14990; format: cell-based; details: ATCC 14990, 18 h
Experimental: as §5

SA biofilms = tested on: SA biofilms; design: method as in PMID 24779193; details: cited from earlier work
EC biofilm = details: cited from earlier work
Text: as §1

PA biofilm = details: cited from earlier work
Text: as §1

C16-RR-NH2 [Lipopeptide C16-RR-NH2]
susceptibility of mature PM biofilms (PM biofilm): resistant

CCCCCCCCCCCC(=O)N[C@@H](CCCCN)C(=O)N[C@@H](CCCNC(=N)N)C(N)=O [Lipopeptide 2, C12-KR-NH2] (Lauroyl-Lys-Arg-NH2)
% ACN at which the peptide was eluted [1]: 33.9% | tR' (adjusted retention time) [1]: 2.32 min | MBEC S. aureus, CL [2]: > 512 µg/mL | MBEC P. aeruginosa, CL [3]: >512/>512 μg/mL | MBEC E. coli, CL [4]: 512 µg/mL | MBEC E. faecalis, CL [5]: 128 µg/mL | MBEC P. mirabilis, CL [6]: >512/>512 μg/mL | MBEC S. epidermidis, CL [7]: 256 µg/mL | MBFIC S. aureus, CL [8]: 128 µg/mL | MBFIC S. aureus, PS [8]: 64 µg/mL | MBFIC P. aeruginosa, CL [9]: 512/512 μg/mL | MBFIC P. aeruginosa, PS [9]: 512/512 μg/mL | MBFIC E. coli, CL [10]: 128 µg/mL | MBFIC E. coli, PS [10]: 512 µg/mL | MBFIC E. faecalis, CL [11]: 512/512 μg/mL | MBFIC E. faecalis, PS [11]: 512/512 μg/mL | MBFIC P. mirabilis, CL [12]: >512/512 μg/mL | MBFIC P. mirabilis, PS [12]: >512/512 μg/mL | MBFIC S. epidermidis, CL [13]: 32 µg/mL | MBFIC S. epidermidis, PS [13]: 16 µg/mL | MIC S. aureus [14]: 64 µg/mL (≈ 132 µM) | MIC P. aeruginosa [15]: 512 µg/mL (≈ 1060 µM) | MIC E. coli [16]: 512 µg/mL (≈ 1060 µM) | MIC E. faecalis [17]: 64 µg/mL (≈ 132 µM) | MIC S. epidermidis [18]: 32 µg/mL (≈ 66.2 µM)

CCCCCCCCCCCCCCCC(=O)N[C@@H](CCCCN)C(=O)N[C@@H](CCCCN)C(=O)N[C@@H](CSSC[C@H](NC(=O)[C@H](CCCCN)NC(=O)[C@H](CCCCN)NC(=O)CCCCCCCCCCCCCCC)C(N)=O)C(N)=O [Lipopeptide 6, C16-KKC-NH2] (I: Palmitoyl-Lys-Lys-Cys-NH2 / II: Palmitoyl-Lys-Lys-Cys-NH2; disulfide I:3-II:3)
% ACN at which the peptide was eluted [1]: 47.8% | tR' (adjusted retention time) [1]: 4.63 min | MBEC S. aureus, CL [2]: 512 µg/mL | MBEC P. aeruginosa, CL [3]: >512/>512 μg/mL | MBEC E. coli, CL [4]: 512/512 μg/mL | MBEC E. faecalis, CL [5]: 512/512 μg/mL | MBEC P. mirabilis, CL [6]: >512/>512 μg/mL | MBEC S. epidermidis, CL [7]: 256/256 μg/mL | MBFIC S. aureus, CL [8]: 64 µg/mL | MBFIC S. aureus, PS [8]: 256 µg/mL | MBFIC P. aeruginosa, CL [9]: 256 µg/mL | MBFIC P. aeruginosa, PS [9]: 512 µg/mL | MBFIC E. coli, CL [10]: 128 µg/mL | MBFIC E. coli, PS [10]: 512 µg/mL | MBFIC E. faecalis, CL [11]: 256/256 μg/mL | MBFIC E. faecalis, PS [11]: 256/256 μg/mL | MBFIC P. mirabilis, CL [12]: >512/512 μg/mL | MBFIC P. mirabilis, PS [12]: >512/512 μg/mL | MBFIC S. epidermidis, CL [13]: 64 µg/mL | MBFIC S. epidermidis, PS [13]: 256 µg/mL | MIC S. aureus [14]: 256 µg/mL (≈ 208 µM) | MIC P. aeruginosa [15]: 256 µg/mL (≈ 208 µM) | MIC E. coli [16]: 256 µg/mL (≈ 208 µM) | MIC E. faecalis [17]: 256 µg/mL (≈ 208 µM) | MIC S. epidermidis [18]: 128 µg/mL (≈ 104 µM)

neomycin
susceptibility of SA biofilms (SA biofilms): resistant | susceptibility of mature PM biofilms (PM biofilm): resistant | activity against EC biofilms (EC biofilm): rather weak activity | activity against PA biofilm (PA biofilm): weak antibiofilm agents

citropin 1.1
susceptibility of mature PM biofilms (PM biofilm): resistant

From paper PMC6835763, “Influence of Short Cationic Lipopeptides with Fatty Acids of Different Chain Lengths on Bacterial Biofilms Formed on Polystyrene and Hydrogel Surfaces” (Pharmaceutics, 2019)
